The text below walks through data of patent US20100047233A1, “TREATMENT OF POST-MENOPAUSAL AND POST-HYSTERECTOMY MEDIATED COGNITIVE DISORDERS” (priority 2006, published 2010).

The subject of test [1] is Tg2576 mice. Briefly: Y-maze performance in aged Tg2576 mice. The format is in vivo. As to conditions: aged (21 month old) Tg2576 female mice, 3 months, vs saline/placebo. The method, then: (§1) Figure illustrates the mean % alternations expressed as % change from baseline. To measure spontaneous alternation behavior and exploratory activity, a hippocampal-associated task, we used a Y-maze [32 cm (long)×10 cm (wide) with 26-cm walls]. Tg-LHβ and LHRKO animals were tested as previously described (Joseph et al., 2003). Briefly, each animal (randomized and investigator-blinded) was placed in one of three arms of the Y-maze (alternating arms across animals in each group) and each arm entry was recorded for duration of 5 minutes. An alternation was defined as 3 entries in 3 different arms (i.e., 1, 2, 3 or 2, 3, 1 etc). % number of alternations was calculated as (total alternations/total number of entries−2)×100. The maze was cleaned with ethanol between each animal to minimize odor cues. […] In this initial study we used aged animals to 1) circumvent the estrogen issue, since aged mice, like humans show estropause and 2) to examine the effects of LH ablation once the disease is well established.

Test [2] relates to Aβ. As to conditions: APP transgenic mice, earlier study; cited from earlier work.
Test [3] has as its system Tg2576 mice. As to conditions: APP transgenic mice, earlier study; cited from earlier work.
Test [4] relates to Aβ. Nature of the test: Aβ burden (% area stained) in hippocampus of Tg2576 mice. The format is in vivo. Particulars: vs saline-treated animals. The source says:
Scale bar, 200 μm. […] In this initial study we used aged animals to 1) circumvent the estrogen issue, since aged mice, like humans show estropause and 2) to examine the effects of LH ablation once the disease is well established.

Test [5] has as its system C57/B6 female mice. Briefly: Y-maze performance in ovariectomized mice. The format is in vivo. Particulars: OVX mice; for Y-maze performance: leuprolide acetate 7.5 mg/kg for 3 months vs saline, improvement specific to placebo replaced group. The method, then:
as §1, with “To” for “Figure illustrates the mean % alternations expressed as % change from baseline. To”, “addition we added a SHAM ovariectomized group that received saline and a placebo pallet (n=10). During the last two weeks of the” for “this initial”, “all” for “we used aged”, “have been tested for Y-maze” for “to 1) circumvent the estrogen issue, since aged mice, like humans show estropause”, “Morris Water Maze performance.” for “2) to examine the effects of LH ablation once the disease is well established.”

The next test concerns LHβ mRNA. Nature of the test: LHβ mRNA expression in mouse pituitary gland. Type of test: in vivo. As to conditions: saline versus 6 and 8 week leuprolide acetate treatment. From the text: (§2) Inset: LHβ mRNA expression in mouse pituitary gland.
In another test the test system is AD patients. Particulars: high doses, phase II clinical trial; cited from earlier work.
The next test has as its system serum LH. Nature of the test: Serum LH after leuprolide acetate treatment in mice. Type of test: in vivo. Particulars: for serum LH: Tg2576 mice, vs saline.
From the text: as §2

For test [6], the system named is C57/B6 female mice. Briefly: Morris Water Maze in ovariectomized mice (leuprolide acetate, estrogen). As to conditions: for OVX-associated cognitive decline, length of time taken to locate the invisible platform across days: OVX C57/B6 mice, Morris Water Maze, 3 months treatment. The format is in vivo. From the text: (Significance indicated by: *P+S vs E+S; #=P+S vs P+L; $=P+S vs SHAM; %=P+S vs E+L; at p<0.05).
For this pilot 2 month old C57/B6 female mice from Jackson Labs, were ovariectomized (n=40) them and either replaced them with 90-day time-release estrogen (n=20) or placebo pellets (Innovative research of America, F1) (n=18). […] In addition we added a SHAM ovariectomized group that received saline and a placebo pallet (n=10). During the last two weeks of the study all animals have been tested for Y-maze and Morris Water Maze performance.
As mentioned before, all mice also underwent MWM testing, a measurement of hippocampal function based on the capacity of the animal to find a hidden platform under water by remembering and using spatial cues in the environment.
(§3) Additionally, to further determine the memory function and training success in the animals we measured the capacity of the animals to retain the information learned using a probe trial. In this regard, at the end of the last day of training we removed the platform and let the animals swim for 1 minute.

In test [7] the test system is C57/B6 female mice. Briefly: Morris Water Maze in ovariectomized mice (cetrorelix). Type of test: in vivo.
From the text: FIG. 13 are graphs illustrating Latency to enter NE quadrant and % Time spent in NE quadrant during the probe trial for animals treated with cetrorelix or saline and sham operated animals (SHAM).
FIG. 14 are plots illustrating the distance swam in NE quadrant during the trial for animals treated with cetrorelix or saline and sham operated animals.
We present preliminary data gathered from a pilot study and that focuses on the effects of cetrorelix on cognition in ovariectomized animals with or without estrogen replacement immediately after surgery. For this pilot 2 month old C57/B6 female mice were ovariectomized, as described above, and then treated with either 0.9% saline and the other half with cetrorelix. In addition we added a SHAM ovariectomized group that received saline and a placebo pallet (n=10). During the last two weeks of the study all animals have been tested for Morris Water Maze performance.
as §3

[8] abbreviates: platform removed, 1 minute swim, regardless of replacement regiment.

“Also recorded” adds a separate entry of the source. Non-standard residues stand in square brackets, D forms with d. Residues, ends and D or L forms follow the SMILES beside them. dPhe(4-Cl) = N[C@H](Cc1ccc(Cl)cc1)C(=O)O; d2Nal = N[C@H](Cc1ccc2ccccc2c1)C(=O)O; dCit = NC(=O)NCCC[C@@H](N)C(=O)O; d3Pal = N[C@H](Cc1cccnc1)C(=O)O

On to `CCNC(=O)[C@@H]1CCCN1C(=O)[C@H](CCCNC(=N)N)NC(=O)[C@H](CC(C)C)NC(=O)[C@@H](CC(C)C)NC(=O)[C@H](Cc1ccc(O)cc1)NC(=O)[C@H](CO)NC(=O)[C@H](Cc1c[nH]c2ccccc12)NC(=O)[C@H](Cc1c[nH]cn1)NC(=O)[C@@H]1CCC(=O)N1` [leuprolide acetate], for which, in the test on Tg2576 mice [1], the “Y-maze cognitive performance (% alternations, % change from baseline)” value is reported as “significantly attenuates cognitive decline”. In addition, the “amyloid-β load in the hippocampus” value in the test with Aβ [2] is listed as “decreases amyloid-β load”. Also, the Y-maze performance entry with Tg2576 mice [3] is recorded as “improves Y-maze performance”. In the test with Aβ [4], the “Aβ burden / plaque load (% area stained in the entire hippocampus)” value is “significantly lower; also recorded: decreases Aβ plaque load”. Besides, in the test with C57/B6 female mice [5], the Y-maze performance result is “significantly improved Y-maze performance”. The Y-maze performance entry in the test on C57/B6 female mice [5] (listed as leuprolide) is given as “effective at improving OVX-dependent cognitive declines”. Also, in the test on LHβ mRNA, the “LHβ mRNA expression in the pituitary” value is “clear decrease in the expression of LHβ mRNA”. Further, the “cognitive impairment and activities of daily living” value in the test on AD patients was “stabilization in cognitive impairment and activities of daily living”. Besides, the “serum LH” value in the test on serum LH was “significant decline in serum LH”. Moreover, the “serum LH” value with serum LH (listed as Leuprolide acetate) was “significantly reduces serum LH”. The “time course of serum LH” value with serum LH (up to 8 weeks following treatment) is given as “classical LH modulation pattern by GnRH agonists”. Besides, in the test with C57/B6 female mice [6], the “OVX-associated cognitive decline, length of time taken to locate the invisible platform across days” value is listed as “as effective as estrogen in rescuing OVX-associated cognition decline”. The “rate of learning in Morris Water Maze” value in the test on C57/B6 female mice [6] (independent of replacement regiment, vs saline) is recorded as “learned at a faster rate”. Moreover, in the test with C57/B6 female mice [6] (setting [8]), the “distance swam in NE quadrant, probe trial” value is “swam longer distances”; the “latency to enter NE quadrant, probe trial” value is given as “entered that quadrant earlier”; the “latency to enter platform location, probe trial” value was “crossed the invisible platform region more earlier”; the “number of platform crossings, probe trial” value was “crossed it more times”.
For estrogen, in the test on C57/B6 female mice [5] (saline-treated, 90-day time-release estrogen vs placebo pellets, p=0.07), the “Y-maze performance, estrogen-replaced vs placebo replaced” value is “strong trend”. For the same compound, the “OVX-associated cognitive decline, length of time taken to locate the invisible platform across days” value with C57/B6 female mice [6] is reported as “rescued”.
Turning to `CC(=O)N[C@H](Cc1ccc2ccccc2c1)C(=O)N[C@H](Cc1ccc(Cl)cc1)C(=O)N[C@H](Cc1cccnc1)C(=O)N[C@@H](CO)C(=O)N[C@@H](Cc1ccc(O)cc1)C(=O)N[C@H](CCCNC(N)=O)C(=O)N[C@@H](CC(C)C)C(=O)N[C@@H](CCCNC(=N)N)C(=O)N1CCC[C@H]1C(=O)N[C@H](C)C(N)=O` [cetrorelix] (Ac-[d2Nal][dPhe(4-Cl)][d3Pal]SY[dCit]LRP[dA]-NH2), in the test with C57/B6 female mice [7] (OVX placebo-implanted mice, cetrorelix vs saline), the “OVX-dependent cognitive declines, Morris Water Maze” value is on record as “effective at improving OVX-dependent cognitive declines”. Further, the “rate of learning in Morris Water Maze” value in the test with C57/B6 female mice [7] (independent of replacement regiment, cetrorelix vs saline) was “learned at a faster rate”. Further, the “distance swam in NE quadrant, probe trial” value in the test with C57/B6 female mice [7] (platform removed, 1 minute swim) is “swam longer distances”.
